This note sets out measurements from the supplement of paper PMC10307832.

Common to all, as to test: relative viability (nuclei count vs DMSO), 5 days (fraction); higher = more cells survive
Compound in assay [1]: C=CC(=O)N1CCC[C@@H](n2nc(-c3ccc(Oc4ccccc4)cc3)c3c(N)ncnc32)C1 [Ibrutinib] + COc1cccc2cc(-c3nc([C@H]4CC[C@H](C(=O)O)CC4)n4ncnc(N)c34)[nH]c12 [OSI-027] (partner 0.5 µM)
The procedure, abridged:
(§1)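 Relative viability divides the nuclei count in treated wells by that in vehicle wells. Lung cancer cell lines were seeded in 1536-well plates, dosed by pin tool the next day, and fixed and stained after 5 days in one step with final 0.05% Triton X-100, 1% formaldehyde and 1 ug/ml Hoechst. Dosing was a single drug or a fixed anchor-drug dose plus five library-drug doses (not always all listed) in √10 steps, and values are medians of duplicate plates imaged at 4×.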

Compound in assay [2]: C=CC(=O)N1CCC[C@@H](n2nc(-c3ccc(Oc4ccccc4)cc3)c3c(N)ncnc32)C1 [Ibrutinib] + Nc1ncn([C@H]2C[C@H](O)[C@@H](CO)O2)c(=O)n1 [Decitabine] (partner 2 µM)
The procedure, abridged:
as §1

Compound in assay [3]: C=CC(=O)Nc1cc(-n2c(=O)ccc3cnc4ccc(-c5ccc(NS(C)(=O)=O)cc5)cc4c32)ccc1C [BMX-IN-1] + Nc1ncn([C@H]2C[C@H](O)[C@@H](CO)O2)c(=O)n1 [Decitabine] (partner 2 µM)
The procedure, abridged:
as §1

Compound in assay [4]: C=CCc1cccc(/C=N/NC(=O)CN2CCN(Cc3ccccc3)CC2)c1O [PAC-1] + COc1cc2c(Oc3ccc(NC(=O)C4(C(=O)Nc5ccc(F)cc5)CC4)cc3F)ccnc2cc1OCCCN1CCOCC1 [Foretinib] (partner 0.25 µM)
Summed up: as §1

For the cell line NCI-H3122, the relative viability in assay [1] (first compound 0.005 µM) was 0.895; in assay [1] (first compound 0.01581 µM), 0.921; in assay [1] (first compound 0.05 µM), 0.955; in assay [1] (first compound 0.1581 µM) it was 0.671; in assay [1] (first compound 0.5 µM) it was 1.32; in assay [2] (first compound 0.005 µM), 0.52. In addition, the relative viability was 0.381 in assay [2] (first compound 0.01581 µM); 0.471 in assay [2] (first compound 0.05 µM); 0.424 in assay [2] (first compound 0.1581 µM); 0.431 in assay [2] (first compound 0.5 µM); 0.421 in assay [3] (first compound 0.02 µM); 0.33 in assay [3] (first compound 0.2 µM). Further, the relative viability in assay [3] (first compound 0.6325 µM) worked out at 0.548; in assay [3] (first compound 2 µM), 0.514; in assay [4] (first compound 0.02 µM) it was 0.958; in assay [4] (first compound 0.06325 µM), 0.976; in assay [4] (first compound 0.2 µM), 0.967; in assay [4] (first compound 2 µM), 0.89.
